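Results reflect a 48-hour exposure of cells in 96-well plates to compound at five concentrations. At the GI50, growth is halved.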 Active and inactive are the calls of the source. No stated cut-off is given here; in the data, active = GI50 up to about 1.1 µM and inactive = higher.
Key:
Experiment in all cases: growth of human tumour cells (NCI), 48 h
[1] = test system: 786-0
[2] = test system: A549
[3] = test system: CAKI-1
[4] = test system: CCRF-CEM
[5] = test system: COLO 205
[6] = test system: DMS-114
[7] = test system: DMS-273
[8] = test system: EKVX
[9] = test system: HCT-15
[10] = test system: HL-60
[11] = test system: HOP-18
[12] = test system: HT-29
[13] = test system: IGROV-1
[14] = test system: K562
[15] = test system: KM-20L2
[16] = test system: KM12
[17] = test system: LOX IMVI
[18] = test system: LXFL 529
[19] = test system: M14
[20] = test system: MOLT-4
[21] = test system: Malme-3M
[22] = test system: NCI-H23
[23] = test system: NCI-H522
[24] = test system: OVCAR-4
[25] = test system: OVCAR-8
[26] = test system: RPMI-8226
[27] = test system: RXF 393
[28] = test system: RXF 631
[29] = test system: SF-268
[30] = test system: SF-295
[31] = test system: SF-539
[32] = test system: SK-MEL-28
[33] = test system: SK-MEL-2
[34] = test system: SK-MEL-5
[35] = test system: SK-OV-3
[36] = test system: SN12C
[37] = test system: SNB-19
[38] = test system: SNB-75
[39] = test system: SNB-78
[40] = test system: SW-620
[41] = test system: TK-10
[42] = test system: U-251
[43] = test system: UACC-257
[44] = test system: UACC-62
[45] = test system: UO-31
[46] = test system: XF498
[47] = test system: ACHN
[48] = test system: DLD-1
[49] = test system: HCC 2998
[50] = test system: HCT-116
[51] = test system: HOP-62
[52] = test system: HOP-92
[53] = test system: M19-MEL
[54] = test system: NCI-H226
[55] = test system: NCI-H460
[56] = test system: OVCAR-3
[57] = test system: OVCAR-5
[58] = test system: A498

With COc1cc(OC)c2c(=O)c3cccc([N+](=O)[O-])c3n(C)c2c1 the GI50 [1] was > 100 µM (inactive), the GI50 [2] was > 100 µM (inactive) and the GI50 [3] was > 100 µM (inactive). For the same molecule, the GI50 [4] was 60 µM (inactive), the GI50 [5] was > 100 µM (inactive) and the GI50 [6] was 69.2 µM (inactive). For the same molecule, the GI50 [7] was 60.3 µM (inactive), the GI50 [8] was > 100 µM (inactive) and the GI50 [9] was greater than 100 µM. For the same molecule, the GI50 [10] was 31.3 µM (inactive), the GI50 [11] was < 0.01 µM (active) and the GI50 [12] was > 100 µM (inactive). For the same molecule, the GI50 [13] was 61.4 µM (inactive), the GI50 [14] was > 100 µM (inactive) and the GI50 [15] was > 100 µM (inactive). For the same molecule, the GI50 [16] was > 100 µM (inactive), the GI50 [17] was 80.4 µM (inactive) and the GI50 [18] was > 100 µM (inactive). For the same molecule, the GI50 [19] was > 100 µM (inactive), the GI50 [20] was 47 µM (inactive) and the GI50 [21] was > 100 µM (inactive). For the same molecule, the GI50 [22] was 77.8 µM (inactive), the GI50 [23] was 52.4 µM (inactive) and the GI50 [24] was > 100 µM (inactive). The GI50 [25] was > 100 µM (inactive), the GI50 [26] was > 100 µM (inactive) and the GI50 [27] was > 100 µM (inactive). For the same molecule, the GI50 [28] was 34.5 µM (inactive), the GI50 [29] was > 100 µM (inactive) and the GI50 [30] was > 100 µM (inactive). For the same molecule, the GI50 [31] was 74 µM (inactive), the GI50 [32] was > 100 µM (inactive) and the GI50 [33] was > 100 µM (inactive). For the same molecule, the GI50 [34] was > 100 µM (inactive), the GI50 [35] was > 100 µM (inactive) and the GI50 [36] was 95.3 µM (inactive). The GI50 [37] was > 100 µM (inactive), the GI50 [38] was > 100 µM (inactive) and the GI50 [39] was > 100 µM (inactive). For the same molecule, the GI50 [40] was > 100 µM (inactive), the GI50 [41] was > 100 µM (inactive) and the GI50 [42] was > 100 µM (inactive). The GI50 [43] was 87.9 µM (inactive), the GI50 [44] was > 100 µM (inactive) and the GI50 [45] was > 100 µM (inactive). The GI50 [46] was > 100 µM (inactive).

For O=C(CCCC(=O)Nc1ccc(Cl)cc1Cl)CC(=O)c1ccc2ccccc2c1, the GI50 [1] was > 100 µM (inactive), the GI50 [2] was > 100 µM (inactive) and the GI50 [47] was > 100 µM (inactive). The GI50 [3] was > 100 µM (inactive), the GI50 [4] was > 100 µM (inactive) and the GI50 [5] was > 100 µM (inactive). The GI50 [48] was > 100 µM (inactive), the GI50 [6] was > 100 µM (inactive) and the GI50 [7] was > 100 µM (inactive). The GI50 [8] was > 100 µM (inactive), the GI50 [49] was > 100 µM (inactive) and the GI50 [50] was > 100 µM (inactive). For the same molecule, the GI50 [9] was greater than 100 µM, the GI50 [10] was > 100 µM (inactive) and the GI50 [11] was > 100 µM (inactive). For the same molecule, the GI50 [51] was > 100 µM (inactive), the GI50 [52] was 96.6 µM (inactive) and the GI50 [12] was > 100 µM (inactive). For the same molecule, the GI50 [13] was > 100 µM (inactive), the GI50 [14] was > 100 µM (inactive) and the GI50 [15] was > 100 µM (inactive). The GI50 [16] was > 100 µM (inactive), the GI50 [17] was > 100 µM (inactive) and the GI50 [18] was > 100 µM (inactive). For the same molecule, the GI50 [19] was > 100 µM (inactive), the GI50 [53] was > 100 µM (inactive) and the GI50 [20] was > 100 µM (inactive). The GI50 [21] was > 100 µM (inactive), the GI50 [54] was > 100 µM (inactive) and the GI50 [22] was > 100 µM (inactive). The GI50 [55] was > 100 µM (inactive), the GI50 [56] was > 100 µM (inactive) and the GI50 [24] was > 100 µM (inactive). The GI50 [57] was > 100 µM (inactive), the GI50 [25] was > 100 µM (inactive) and the GI50 [27] was 10.8 µM (inactive). The GI50 [28] was > 100 µM (inactive), the GI50 [29] was > 100 µM (inactive) and the GI50 [30] was > 100 µM (inactive). For the same molecule, the GI50 [31] was > 100 µM (inactive), the GI50 [32] was > 100 µM (inactive) and the GI50 [33] was > 100 µM (inactive). The GI50 [34] was > 100 µM (inactive), the GI50 [35] was > 100 µM (inactive) and the GI50 [36] was > 100 µM (inactive). For the same molecule, the GI50 [37] was > 100 µM (inactive), the GI50 [39] was > 100 µM (inactive) and the GI50 [40] was > 100 µM (inactive). For the same molecule, the GI50 [41] was > 100 µM (inactive), the GI50 [42] was > 100 µM (inactive) and the GI50 [43] was > 100 µM (inactive). The GI50 [44] was > 100 µM (inactive) and the GI50 [45] was > 100 µM (inactive).

With COC(=O)C1Cc2c(n(C)c3ccccc23)C(CCC(=O)O)N1Cc1ccccc1 (stereo unspecified) the GI50 [1] was > 100 µM (inactive), the GI50 [58] was 15.2 µM (inactive) and the GI50 [2] was 31 µM (inactive). The GI50 [47] was 19.6 µM (inactive), the GI50 [3] was 37.2 µM (inactive) and the GI50 [4] was 25.4 µM (inactive). For the same molecule, the GI50 [5] was 27 µM (inactive), the GI50 [48] was > 100 µM (inactive) and the GI50 [6] was 26.7 µM (inactive). The GI50 [7] was 31.6 µM (inactive), the GI50 [8] was 46.1 µM (inactive) and the GI50 [49] was > 100 µM (inactive). For the same molecule, the GI50 [50] was 21.2 µM (inactive), the GI50 [9] was 27.7 µM and the GI50 [10] was 34.4 µM (inactive). For the same molecule, the GI50 [51] was > 100 µM (inactive), the GI50 [52] was 23.6 µM (inactive) and the GI50 [12] was 36.1 µM (inactive). The GI50 [13] was 40.6 µM (inactive), the GI50 [14] was 37 µM (inactive) and the GI50 [15] was 34.9 µM (inactive). The GI50 [16] was 28.4 µM (inactive), the GI50 [17] was 37.8 µM (inactive) and the GI50 [18] was 37 µM (inactive). The GI50 [19] was 25.5 µM (inactive), the GI50 [53] was 32.1 µM (inactive) and the GI50 [20] was 27.5 µM (inactive). The GI50 [21] was > 100 µM (inactive), the GI50 [54] was 21.7 µM (inactive) and the GI50 [22] was 26.4 µM (inactive). The GI50 [55] was 23.6 µM (inactive), the GI50 [23] was 22.7 µM (inactive) and the GI50 [56] was 21.1 µM (inactive). For the same molecule, the GI50 [24] was 33.7 µM (inactive), the GI50 [57] was 79.3 µM (inactive) and the GI50 [25] was 39.4 µM (inactive). The GI50 [26] was 16.1 µM (inactive), the GI50 [27] was 28.6 µM (inactive) and the GI50 [28] was 36.9 µM (inactive). The GI50 [29] was 26.4 µM (inactive), the GI50 [30] was 31 µM (inactive) and the GI50 [31] was 22.4 µM (inactive). For the same molecule, the GI50 [32] was 28.4 µM (inactive), the GI50 [33] was > 100 µM (inactive) and the GI50 [34] was 27.3 µM (inactive). The GI50 [35] was 36.5 µM (inactive), the GI50 [36] was 38.5 µM (inactive) and the GI50 [37] was 33.2 µM (inactive). The GI50 [38] was 32.5 µM (inactive), the GI50 [39] was 32.8 µM (inactive) and the GI50 [40] was 40.4 µM (inactive). The GI50 [41] was 55.8 µM (inactive), the GI50 [42] was 37.7 µM (inactive) and the GI50 [43] was 43.2 µM (inactive). For the same molecule, the GI50 [44] was 26.6 µM (inactive), the GI50 [45] was 21.2 µM (inactive) and the GI50 [46] was 28.1 µM (inactive).
